Experimental data as given in patent US20100119599A1 (ARCHER PHARMACEUTICALS, INC., priority 2006, published 2010).
Like-named read-outs stand apart in the source and are kept apart here.

Tests used:
Aβ1-42 = test: Measurement of Aβ1-42 in culture medium of 7W WT APP751 CHO cells by ELISA; type: cell-based, Chinese hamster; details: for Aβ1-42 (% of control): CHO cells that overexpress APP751, zero = below the detection limit of the assay; for activity at 5 µM: Cricetulus griseus, 5 μM test compound, CHO cells stably transfected with human APP751, culture medium, ELISA, control DMSO;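 on Aβ1-42 (% of control): 5 µM test compound but RI-coded compounds at 10 µM for 24 hours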
Aβ1-40 = test: Measurement of Aβ1-40 in culture medium of 7W WT APP751 CHO cells by ELISA; type: cell-based, Chinese hamster; details: for Aβ1-40 (% of control): CHO cells that overexpress APP751, zero = below the detection limit of the assay; for activity at 5 µM: Cricetulus griseus, 5 μM test compound, CHO cells stably transfected with human APP751, culture medium, ELISA, control DMSO;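 on all read-outs here: 5 µM test compound but RI-coded compounds at 10 µM for 24 hours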
[1] = Table 1, 0 = no detectable amount, read-out: Aβ1-42 (% of control)
[2] = Table 1, 0 = no detectable amount
[3] = Table 3, read-out: Aβ-42 (% of control)

SMILES | Aβ1-42 (% of control) (Aβ1-42) | Aβ1-40 (% of control) (Aβ1-40) | activity at 5 µM (Aβ1-42; [1]) [%] | activity at 5 µM (Aβ1-40; [2]) [%] | also measured
CC1=C(C(=O)Nc2ccccc2)C(c2cccs2)C(C#N)=C(SCC(=O)Nc2ccccc2C(C)C)N1 (centres unmarked) [RI_56] | 100 % of control | 54.5 % of control |  |  | 
CC(=O)C1=C(C)NC(SCC(=O)Nc2c(C)cc(Br)cc2Br)=C(C#N)C1c1cc(C)cs1 (centres unmarked) [ST048506, 2-[5-acetyl-3-cyano-6-methyl-4-(4-methyl(2-thienyl))(2-1,4-dihydropyridylthio)]-N-(2,4-dibromo-6-methylphenyl)acetamide] | 65.58 % of control | 91.16 % of control |  |  | 
COCCOC(=O)C1=C(C)NC2=C(C(=O)CCC2)C1c1ccc(N(C)C)cc1 (centres unmarked) [ST013251, 2-methoxyethyl 4-[4-(dimethylamino)phenyl]-2-methyl-5-oxo-1,4,6,7,8-pentahydroquinoline-3-carboxylate] |  |  | 58.6 | 89.4 | 
CCOC(=O)C1=C(C)NC2=C(C(=O)CC(C)(C)C2)C1c1cc2c(cc1[NH+]([O-])O)OCO2 (centres unmarked) [ST013060, ethyl 2,7,7-trimethyl-4-(6-nitro(2H-benzo[d]1,3-dioxolan-5-yl))-5-oxo-1,4,6,7,8-pentahydroquinoline-3-carboxylate] |  |  | 99.4 | 32.7 | 
CC1=C(C(=O)OCCOc2ccccc2)C(c2cccc(Oc3ccccc3)c2)C2=C(CC(C)(C)CC2=O)N1 (centres unmarked) [ST015055, 2-phenoxyethyl 2,7,7-trimethyl-5-oxo-4-(3-phenoxyphenyl)-1,4,6,7,8-pentahydroquinoline-3-carboxylate] |  |  | 78.2 | 13.6 | 
CC(=O)Oc1ccc(C2C(C(=O)OCCOc3ccccc3)=C(C)NC3=C2C(=O)CC(c2ccccc2)C3)cc1 (centres unmarked) [ST017230, 4-{2-methyl-5-oxo-7-phenyl-3-[(2-phenoxyethyl)oxycarbonyl]-4-1,4,6,7,8-pentahydroquinolyl}phenyl acetate] |  |  | 84.7 | 69.1 | 
CC1=C(C(=O)OCC2CCCO2)C(c2cccc(Cl)c2)C2=C(CC(c3cccs3)CC2=O)N1 (centres unmarked) [ST051818, oxolan-2-ylmethyl 4-(3-chlorophenyl)-2-methyl-5-oxo-7-(2-thienyl)-1,4,6,7,8-pentahydroquinoline-3-carboxylate] |  |  | 72.9 | 37 | 
CC1=C(C(=O)OCC(C)C)C(c2cccc3ccccc23)C2=C(CCCC2=O)N1 (centres unmarked) [ST052365, 2-methylpropyl 2-methyl-4-naphthyl-5-oxo-1,4,6,7,8-pentahydroquinoline-3-carboxylate] |  |  | 72.8 | 59.1 | 
COc1cc(/C=c2\sc3n(c2=O)C(N)=C(C#N)C(c2cc(OC)c(OC)c(OC)c2)C=3C#N)cc(OC)c1OC (centres unmarked) [ST025031, 5-amino-3-oxo-7-(3,4,5-trimethoxyphenyl)-2-[(3,4,5-trimethoxyphenyl)methylene]-4,7-dihydro-1,3-thiazolidino[3,2-a]pyridine-6,8-dicarbonitrile] | 77.59 % of control | 55.17 % of control |  |  | 
CCCOC(=O)C1=C(C)NC2=C(C(=O)CC(c3ccccc3)C2)C1c1ccc(Cl)cc1Cl (centres unmarked) [ST017293, propyl 4-(2,4-dichlorophenyl)-2-methyl-5-oxo-7-phenyl-1,4,6,7,8-pentahydroquinoline-3-carboxylate] |  |  | 95.2 | 57.7 | 
CCOc1ccccc1C1C(C(=O)OCCOc2ccccc2)=C(C)NC2=C1C(=O)CC(C)(C)C2 (centres unmarked) [ST052381, 2-phenoxyethyl 4-(2-ethoxyphenyl)-2,7,7-trimethyl-5-oxo-1,4,6,7,8-pentahydroquinoline-3-carboxylate] |  |  | 62 | 45.1 | 
N#CC1=C(N)NC(SCC(N)=O)=C(C#N)C1c1ccc(Cl)cc1 (centres unmarked) [RI_3] | 51.2 % of control | 97.4 % of control |  |  | 
O=C(N=C1CC(c2ccccc2)N(c2ccncc2)CC1[N+](=O)[O-])Nc1cccnc1 (centres unmarked) [ST026819, 2-(5-nitro-2-phenyl-1-(4-pyridyl)(4-6-hydropyridylidene))-N-(3-pyridyl)-2-azaace tamide] |  |  |  |  | activity at 5 µM (Aβ1-42; [3]): 57.8%; activity at 5 µM (Aβ1-40; Table 3): 64.9%
COC(=O)C1=C(C)NC2=C(C(=O)CC(C)(C)C2)C1c1ccc(C(F)(F)F)cc1 (centres unmarked) [ST052359, methyl 2,7,7-trimethyl-5-oxo-4-[4-(trifluoromethyl)phenyl]-1,4,6,7,8-pentahydroquinoline-3-carboxylate] |  |  | 29.5 | 31 | 
CC1=C(C(=O)Nc2ccccc2)C(c2cccs2)C(C#N)=C(SCC(=O)Nc2ccc(Cl)c(C)c2)N1 (centres unmarked) [RI_72] | 50.9 % of control | 40.2 % of control |  |  | 
Cc1cc(=O)cc(C)n1NC(N)=S [ST002431, 1-[(aminothioxomethyl)amino]-2,6-dimethylhydropyridin-4-one] |  |  |  |  | activity at 5 µM (Aβ1-42; [3]): 97.6%; activity at 5 µM (Aβ1-40; Table 3): 16.9%
CC1=C(C(=O)OC2CCCCCC2)C(c2cccc(Br)c2)C2=C(CC(C)(C)CC2=O)N1 (centres unmarked) [ST024487, cycloheptyl 4-(3-bromophenyl)-2,7,7-trimethyl-5-oxo-1,4,6,7,8-pentahydroquinoline-3-carboxylate] |  |  | 3.77 | 5.07 | 
CC1=C(C(=O)OCc2ccccc2)C(c2ccc(C(F)(F)F)cc2)C2=C(CCCC2=O)N1 (centres unmarked) [ST052323, phenylmethyl 2-methyl-5-oxo-4-[4-(trifluoromethyl)phenyl]-1,4,6,7,8-pentahydroquinoline-3-carboxylate] |  |  | 0 | 4.91 | 
CC1=C(C(=O)Nc2ccccc2)C(c2cccs2)C(C#N)=C(SCC(=O)Nc2ccc(C)c(C)c2)N1 (centres unmarked) [ST041706, N-(3,4-dimethylphenyl)-2-[3-cyano-6-methyl-5-(N-phenylcarbamoyl)-4-(2-thienyl) (2-1,4-dihydropyridylthio)]acetamide] | 50.13 % of control | 68.73 % of control |  |  | 
CCOC(=O)C1=C(C)NC2=C(C(=O)CC(c3ccc(OC)cc3)C2)C1c1ccccc1F (centres unmarked) [ST015256, ethyl 4-(2-fluorophenyl)-7-(4-methoxyphenyl)-2-methyl-5-oxo-1,4,6,7,8-pentahydroquinoline-3-carboxylate] |  |  | 75.8 | 69.8 | 
CCCOC(=O)C1=C(C)NC2=C(C(=O)CCC2)C1c1cccnc1 (centres unmarked) [ST017250, propyl 2-methyl-5-oxo-4-(3-pyridyl)-1,4,6,7,8-pentahydroquinoline-3-carboxylate] |  |  | 49.2 | 28.5 | 
CC1=C(C(=O)OC(C)C)C(c2ccncc2)C2=C(CCCC2=O)N1 (centres unmarked) [ST013090, methylethyl 2-methyl-5-oxo-4-(4-pyridyl)-1,4,6,7,8-pentahydroquinoline-3-carboxylate] |  |  | 87.3 | 41.1 | 
CC1=C(C(=O)Nc2ccc(Cl)cc2)C(c2ccccc2)c2c(sc(C(=O)Nc3cccc(C)c3)c2N)N1 (centres unmarked) [RI_43] | 75.1 % of control | 61.2 % of control |  |  | 
CCOC(=O)C1=CN(c2cc(C)ccc2C)C=C(C(=O)OCC)C1c1ccc(OCC)c(OC)c1 [ST052471, ethyl 1-(2,5-dimethylphenyl)-5-(ethoxycarbonyl)-4-(4-ethoxy-3-methoxyphenyl)-1,4-dihydropyridine-3-carboxylate] | 57.75 % of control | 34.26 % of control |  |  | 
CC1=C(C(=O)Nc2ccccc2)C(c2cccs2)C(C#N)=C(SCC(=O)Nc2ccc(C(C)C)cc2)N1 (centres unmarked) [RI_47] | 28.1 % of control | 30.5 % of control |  |  | 
